Laboratory results published in ChEMBL document CHEMBL6092167, “Phosphorylation as an Effective Tool to Improve Stability and Reduce Toxicity of Antimicrobial Peptides” (J Med Chem, 2024).
≈ marks a conversion by molar mass, not a printed value. Calls of active or inactive are those of the source. No cut-off for these calls is given here. Non-standard residues stand in square brackets, D forms with d. Residues, ends and D or L forms follow the SMILES beside them. Bip = N[C@@H](Cc1ccc(-c2ccccc2)cc1)C(=O)O; pY = N[C@@H](Cc1ccc(OP(=O)(O)O)cc1)C(=O)O

Legend:
Klebsiella pneumoniae [1] = experiment: Antibacterial activity against rifampicin resistant Klebsiella pneumoniae; assay type: functional
Cell membrane [2] = experiment: Induction of cytoplasmic membrane rupture in Pseudomonas aeruginosa ATCC 27853 assessed as adhesion at 2 times MIC incubated for 30 to 120 mins by SEM analysis; assay type: subcellular; conditions: time 30-120 min
Bacillus subtilis = experiment: Antibacterial activity against Bacillus subtilis ATCC 23857 incubated for 18 to 24 hrs by broth microdilution method; assay type: functional; conditions: time 18-24 hrs
[3] = Stability in Kunming mouse serum assessed as half life measured upto 24 hrs by RP-HPLC method; assay type: ADME, cell-free
[4] = Toxicity in ip dosed BALB/c mouse assessed as hemorrhage in lung at LD50 dose by H and E staining based assay; assay type: organism-based; conditions: in vivo
[5] = Hemolytic activity in mouse erythrocyte incubated for 1 hr by microplate reader assay; assay type: toxicity, cell-based
Staphylococcus aureus [6] = experiment: Antibacterial activity against Staphylococcus aureus ATCC 25923 infected in BALB/c mouse systemic infection model assessed as reduction in bacterial load in kidney at 20 mg/kg, ip pre-infected for 2 hrs followed by compound addition and measured after 8 hrs postinfection; assay type: functional, organism-based; conditions: time 6.0 hrs
[7] = Toxicity in ip dosed BALB/c mouse assessed as inflammatory cell infiltration in lung at LD50 dose by H and E staining based assay; assay type: organism-based; conditions: in vivo
[8] = Toxicity in ip dosed BALB/c mouse assessed as hemorrhage in kidney at LD50 dose by H and E staining based assay; assay type: organism-based; conditions: in vivo
Klebsiella pneumoniae [9] = experiment: Additive antibacterial activity against Klebsiella pneumoniae ATCC 700603 assessed as fractional inhibitory concentration index at 1/4 to 4 times MIC incubated for 18 to 24 hrs in presence of ciprofloxacin by checkerboard assay; assay type: functional; conditions: time 18-24 hrs
Pseudomonas aeruginosa = experiment: Antibacterial activity against Pseudomonas aeruginosa 119 incubated for 18 to 24 hrs by broth microdilution method; assay type: functional; conditions: time 18-24 hrs
Staphylococcus aureus [10] = experiment: Antibacterial activity against Staphylococcus aureus 794 incubated for 18 to 24 hrs by broth microdilution method; assay type: functional; conditions: time 18-24 hrs
[11] = Toxicity in BALB/c mouse assessed as mortality at 40 to 130 mg/kg, ip measured after 14 days; assay type: organism-based; conditions: in vivo, 336 h, dose 40-130 mg/kg, time 14 day
Staphylococcus aureus [12] = experiment: Antibacterial activity against Staphylococcus aureus ATCC 25923 incubated for 18 to 24 hrs by broth microdilution method; assay type: functional; conditions: time 18-24 hrs
Staphylococcus aureus [13] = experiment: Antibiofilm activity against Staphylococcus aureus ATCC 25923 assessed as eradication of preformed biofilms at 2 to 4 times MIC incubated for 24 hrs by crystal violet staining based assay; assay type: functional, organism-based
Cell membrane [14] = experiment: Induction of cytoplasmic membrane rupture in Pseudomonas aeruginosa ATCC 27853 assessed as wrinkling at 2 times MIC incubated for 30 to 120 mins by SEM analysis; assay type: subcellular; conditions: time 30-120 min
Escherichia coli [15] = experiment: Antibacterial activity against Escherichia coli ATCC 25922 assessed as fold increase in MIC preincubated with serum for 6 hrs followed by 15 mins inactivation prior to bacteria addition and measured after 18 to 24 hrs; assay type: functional; conditions: time 18-24 hrs
Klebsiella pneumoniae [16] = experiment: Antibacterial activity against Klebsiella pneumoniae ATCC 700603 infected in BALB/c mouse lung infection model assessed as increase in mouse survival at 5 mg/kg, ip administered twice daily for 3 days and measured for 7 days; assay type: functional, organism-based; conditions: time 10.0 day
Klebsiella pneumoniae [17] = experiment: Antibacterial activity against Klebsiella pneumoniae ATCC 700603 infected in BALB/c mouse lung infection model assessed as alveolar dilation at 5 mg/kg, ip administered twice daily for 3 days and measured after 7 days; assay type: functional, organism-based; conditions: time 10.0 day
Klebsiella pneumoniae [18] = experiment: Antibacterial activity against Klebsiella pneumoniae ATCC 700603 infected in BALB/c mouse lung infection model assessed as increased healing at 5 mg/kg, ip administered twice daily for 3 days and measured for 7 days; assay type: functional, organism-based; conditions: time 10.0 day
Escherichia coli [19] = experiment: Antibacterial activity against Escherichia coli ATCC 25922 assessed as fold increase in MIC in presence of MgCl2; assay type: functional
Staphylococcus aureus [20] = experiment: Antibacterial activity against Staphylococcus aureus ATCC 25923 infected in BALB/c mouse systemic infection model assessed as reduction in bacterial load in lung at 21.21 mg/kg, ip pre-infected for 2 hrs followed by compound addition and measured after 8 hrs postinfection; assay type: functional, organism-based; conditions: time 6.0 hrs
[21] = Toxicity in ip dosed BALB/c mouse assessed as effect on lung at LD50 dose by H and E staining based assay; assay type: organism-based; conditions: in vivo
Staphylococcus aureus [22] = experiment: Antibacterial activity against Staphylococcus aureus ATCC 25923 in presence of FeCl3; assay type: functional, organism-based
[23] = Toxicity in ip dosed BALB/c mouse assessed as kidney bleeding at LD50 dose by H and E staining based assay; assay type: organism-based; conditions: in vivo
Klebsiella pneumoniae [24] = experiment: Antibacterial activity against Klebsiella pneumoniae ATCC 700603 infected in BALB/c mouse lung infection model assessed as increase in mouse survival at 5.31 mg/kg, ip administered twice daily for 3 days and measured for 7 days; assay type: functional, organism-based; conditions: time 10.0 day
Klebsiella pneumoniae [25] = experiment: Antibacterial activity against Klebsiella pneumoniae ATCC 700603 infected in BALB/c mouse lung infection model assessed as alveolar dilation at 5.31 mg/kg, ip administered twice daily for 3 days and measured after 7 days; assay type: functional, organism-based; conditions: time 10.0 day
Escherichia coli [26] = experiment: Antibacterial activity against Escherichia coli ATCC 25922 in presence of FeCl3; assay type: functional, organism-based
Staphylococcus aureus [27] = experiment: Antibacterial activity against Staphylococcus aureus ATCC 25923 in presence of ZnCl2; assay type: functional, organism-based
Klebsiella pneumoniae [28] = experiment: Bactericidal activity against Klebsiella pneumoniae ATCC 700603 at 2 times MIC within 60 mins by time kill assay; assay type: functional, organism-based
Staphylococcus aureus [29] = experiment: Bactericidal activity against Staphylococcus aureus ATCC 25923 at 2 times MIC within 120 mins by time kill assay; assay type: functional, organism-based
Staphylococcus aureus [30] = experiment: Antibacterial activity against Staphylococcus aureus ATCC 25923 infected in BALB/c mouse systemic infection model assessed as improved alveoli dilation at 21.21 mg/kg, ip pre-infected for 2 hrs followed by compound addition and measured after 8 hrs postinfection; assay type: functional, organism-based; conditions: time 6.0 hrs
[31] = Toxicity in BALB/c mouse assessed as mortality at 220 to 350 mg/kg, ip measured after 14 days; assay type: organism-based; conditions: in vivo, 336 h, dose 220-350 mg/kg, time 14 day
Escherichia coli [32] = experiment: Antibacterial activity against Escherichia coli ATCC 25922 in presence of KCl; assay type: functional, organism-based
Staphylococcus aureus [33] = experiment: Antibacterial activity against Staphylococcus aureus ATCC 25923 infected in BALB/c mouse systemic infection model assessed as reduction in inflammatory response in lung tissue at 21.21 mg/kg, ip pre-infected for 2 hrs followed by compound addition and measured after 8 hrs postinfection; assay type: functional, organism-based; conditions: time 6.0 hrs
Klebsiella pneumoniae [34] = experiment: Antibacterial activity against Klebsiella pneumoniae ATCC 700603 infected in BALB/c mouse lung infection model assessed as increased healing at 5.31 mg/kg, ip administered twice daily for 3 days and measured for 7 days; assay type: functional, organism-based; conditions: time 10.0 day
Staphylococcus aureus [35] = experiment: Antibacterial activity against Staphylococcus aureus ATCC 25923 assessed as fold increase in MIC in presence of Na+; assay type: functional
Staphylococcus aureus [36] = experiment: Antibacterial activity against Staphylococcus aureus ATCC 25923 infected in BALB/c mouse systemic infection model assessed as reduction in bacterial load in kidney at 21.21 mg/kg, ip pre-infected for 2 hrs followed by compound addition and measured after 8 hrs postinfection; assay type: functional, organism-based; conditions: time 6.0 hrs
Escherichia coli [37] = experiment: Antibacterial activity against Escherichia coli ATCC 25922 in presence of […]; assay type: functional, organism-based

CC(C)C[C@H](NC(=O)[C@H](CC(C)C)NC(=O)[C@H](Cc1ccc(O)cc1)NC(=O)[C@H](CCCCN)NC(=O)[C@H](CC(C)C)NC(=O)[C@H](CCCNC(=N)N)NC(=O)[C@H](CCCCN)NC(=O)[C@H](Cc1ccc(-c2ccccc2)cc1)NC(=O)[C@H](CC(C)C)NC(=O)CN)C(N)=O (H-GL[Bip]KRLKYLL-NH2)
MIC (Klebsiella pneumoniae [1]): 8 µM (≈ 10.6 µg/mL) | Activity (Cell membrane [2]): Active | MIC (Bacillus subtilis): 4 µM (≈ 5.3 µg/mL) | half-life [3]: 1.36 h | Activity [4]: Toxic | MHC [5]: 27.38 µM | Activity (Staphylococcus aureus [6]): Active | Activity [7]: Toxic | Activity [8]: Toxic | fractional inhibitory concentration index (FICI) (Klebsiella pneumoniae [9]): 0.75 | MIC (Pseudomonas aeruginosa): 8 µM (≈ 10.6 µg/mL) | MIC (Staphylococcus aureus [10]): 8 µM (≈ 10.6 µg/mL) | Activity [11]: Toxic | MIC (Staphylococcus aureus [12]): 8 µM (≈ 10.6 µg/mL) | Activity (Staphylococcus aureus [13]): Active | Activity (Cell membrane [14]): Active | fold change (FC) (Escherichia coli [15]): 2 | Activity (Klebsiella pneumoniae [16]): Active; Comparable Activity To Polymyxin B | Activity (Klebsiella pneumoniae [17]): Active | Activity (Klebsiella pneumoniae [18]): Active

CC(C)C[C@H](NC(=O)[C@H](CC(C)C)NC(=O)[C@H](Cc1ccc(OP(=O)(O)O)cc1)NC(=O)[C@H](CCCCN)NC(=O)[C@H](CC(C)C)NC(=O)[C@H](CCCNC(=N)N)NC(=O)[C@H](CCCCN)NC(=O)[C@H](Cc1ccc(-c2ccccc2)cc1)NC(=O)[C@H](CC(C)C)NC(=O)CN)C(N)=O (H-GL[Bip]KRLK[pY]LL-NH2)
fold change (FC) (Escherichia coli [19]): 2 | MIC (Klebsiella pneumoniae [1]): 8 µM (≈ 11.2 µg/mL) | Activity (Staphylococcus aureus [20]): Active | Activity (Cell membrane [2]): Active | MIC (Bacillus subtilis): 8 µM (≈ 11.2 µg/mL) | Activity [21]: Toxic | Activity (Staphylococcus aureus [22]): Active; Compound Showed Excellent Tolerance Towards Salt Environment | Activity [23]: Toxic | Activity (Klebsiella pneumoniae [24]): Active; Comparable Activity To Polymyxin B | Activity (Klebsiella pneumoniae [25]): Active | half-life [3]: 8.51 h | Activity (Escherichia coli [26]): Active; Compound Showed Excellent Tolerance Towards Salt Environment | MHC [5]: > 256 µM | Activity (Staphylococcus aureus [27]): Active; Compound Showed Excellent Tolerance Towards Salt Environment | Activity (Klebsiella pneumoniae [28]): Active | fractional inhibitory concentration index (FICI) (Klebsiella pneumoniae [9]): 0.563 | MIC (Pseudomonas aeruginosa): 15 µM (≈ 21.1 µg/mL) | MIC (Staphylococcus aureus [10]): 8 µM (≈ 11.2 µg/mL) | Activity (Staphylococcus aureus [29]): Active | Activity (Staphylococcus aureus [30]): Active | MIC (Staphylococcus aureus [12]): 8 µM (≈ 11.2 µg/mL) | Activity (Staphylococcus aureus [13]): Active | Activity [31]: Toxic | Activity (Cell membrane [14]): Active | Activity (Escherichia coli [32]): Active; Compound Showed Excellent Tolerance Towards Salt Environment | Activity (Staphylococcus aureus [33]): Active | Activity (Klebsiella pneumoniae [34]): Active | Activity (Staphylococcus aureus [35]): Active; Compound Showed Excellent Tolerance Towards Salt Environment | Activity (Staphylococcus aureus [36]): Active | Activity (Escherichia coli [37]): Active; Compound Showed Excellent Tolerance Towards Salt Environment
